Laboratory results published in patent US7632972B2, “Compounds and methods for treatment of cancer and modulation of programmed cell death for melanoma and other cancer cells” (The Board of Trustees of the University of Illionis, priority 2003, dated 2009).

Key:
Assay type in all cases: cell-based, human
[1] = tested on: SNB-19; test: NCI 60 cell line screen (SRB), CNS Cancer
Description: (§1) The operation of this screen utilizes 60 different human tumor cell lines, representing leukemia, melanoma and cancers of the lung, colon, brain, ovary, breast, prostate, and kidney. The aim is to prioritize for further evaluation, synthetic compounds or natural product samples showing selective growth inhibition or cell killing of particular tumor cell lines. This screen is unique in that the complexity of a 60 cell line dose response produced by a given compound results in a biological response pattern which can be utilized in pattern recognition algorithms. Using these algorithms, it is possible to assign a putative mechanism of action to a test compound, or to determine that the response pattern is unique and not similar to that of any of the standard prototype compounds included in the NCl database (see DTP Overview tab). In addition, following characterization of various cellular molecular targets in the 60 cell lines, it may be possible to select compounds most likely to interact with a specific molecular target.
(§2) The human tumor cell lines of the cancer screening panel are grown in RPMI 1640 medium containing 5% fetal bovine serum and 2 mM L-glutamine. For a typical screening experiment, cells are inoculated into 96 well microtiter plates in 100 μL at plating densities ranging from 5,000 to 40,000 cells/well depending on the doubling time of individual cell lines. After cell inoculation, the microtiter plates are incubated at 37° C., 5% CO2, 95% air and 100% relative humidity for 24 h prior to addition of experimental drugs.
(§3) After 24 h, two plates of each cell line are fixed in situ with TCA, to represent a measurement of the cell population for each cell line at the time of drug addition (Tz). Experimental drugs are solubilized in dimethyl sulfoxide at 400-fold the desired final maximum test concentration and stored frozen prior to use. At the time of drug addition, an aliquot of frozen concentrate is thawed and diluted to twice the desired final maximum test concentration with complete medium containing 50 μg/ml gentamicin. Additional four, 10-fold or ½ log serial dilutions are made to provide a total of five drug concentrations plus control. Aliquots of 100 μl of these different drug dilutions are added to the appropriate microtiter wells already containing 100 μl of medium, resulting in the required final drug concentrations.
(§4) Following drug addition, the plates are incubated for an additional 48 h at 37° C., 5% CO2, 95% air, and 100% relative humidity. For adherent cells, the assay is terminated by the addition of cold TCA. Cells are fixed in situ by the gentle addition of 50 μl of cold 50% (w/v) TCA (final concentration, 10% TCA) and incubated for 60 minutes at 4° C. The supernatant is discarded, and the plates are washed five times with tap water and air dried. Sulforhodamine B (SRB) solution (100 μl) at 0.4% (w/v) in 1% acetic acid is added to each well, and plates are incubated for 10 minutes at room temperature. After staining, unbound dye is removed by washing five times with 1% acetic acid and the plates are air dried. Bound stain is subsequently solubilized with 10 mM trizma base, and the absorbance is read on an automated plate reader at a wavelength of 515 nm. For suspension cells, the methodology is the same except that the assay is terminated by fixing settled cells at the bottom of the wells by gently adding 50 μl of 80% TCA (final concentration, 16% TCA). Using the seven absorbance measurements [time zero, (Tz), control growth, (C), and test growth in the presence of drug at the five concentration levels (Ti)], the percentage growth is calculated at each of the drug concentrations levels. Percentage growth inhibition is calculated as: [(Ti−Tz)/(C−Tz)]×100 for concentrations for which Ti>/=Tz [(Ti−Tz)/Tz]×100 for concentrations for which Ti<Tz.
(§5) Three dose response parameters are calculated for each experimental agent. […]

[2] = tested on: SNB-75; test: NCI 60 cell line screen (SRB), CNS Cancer
Description: as §1, §2, §3, §4, §5

[3] = tested on: UACC-62; test: NCI 60 cell line screen (SRB), Melanoma
Description: as §1, §2, §3, §4, §5

[4] = tested on: HOP-62; test: NCI 60 cell line screen (SRB), Non-Small Cell Lung Cancer
Description: as §1, §2, §3, §4, §5

[5] = tested on: EKVX; test: as above
Description: as §1, §2, §3, §4, §5

[6] = tested on: NCI-H522; test: as above
Description: as §1, §2, §3, §4, §5

[7] = tested on: NCI-H460; test: as above
Description: as §1, §2, §3, §4, §5

[8] = tested on: A549/ATCC; test: as above
Description: as §1, §2, §3, §4, §5

[9] = tested on: HOP-92; test: as above
Description: as §1, §2, §3, §4, §5

[10] = read-out: LC50 (the source's name)

COc1cccc(CCNC(=O)CC(c2ccccc2)(c2ccccc2)c2ccccc2)c1 [Compound Z3]
GI50 ([1]; SNB-19): 90.1 µM | TGI ([1]; SNB-19): >1.00E−04 | Percent Growth ([1]; SNB-19, Log10 Concentration −4.0): 48% | Percent Growth ([1]; SNB-19, Log10 Concentration −5.0): 92% | Percent Growth ([1]; SNB-19, Log10 Concentration −6.0): 92% | Percent Growth ([1]; SNB-19, Log10 Concentration −7.0): 107% | Percent Growth ([1]; SNB-19, Log10 Concentration −8.0): 97% | CC50 ([1]; SNB-19, read-out: LC50 (the source's name)): > 100 µM | GI50 ([2]; SNB-75): > 100 µM | TGI ([2]; SNB-75): >1.00E−04 | Percent Growth ([2]; SNB-75, Log10 Concentration −4.0): 96% | Percent Growth ([2]; SNB-75, Log10 Concentration −5.0): 118% | Percent Growth ([2]; SNB-75, Log10 Concentration −6.0): 113% | Percent Growth ([2]; SNB-75, Log10 Concentration −7.0): 117% | Percent Growth ([2]; SNB-75, Log10 Concentration −8.0): 94% | CC50 ([2]; SNB-75, read-out: LC50 (the source's name)): > 100 µM | GI50 ([3]; UACC-62): 0.613 µM | TGI ([3]; UACC-62): >1.00E−04 | Percent Growth ([3]; UACC-62, Log10 Concentration −4.0): 22% | Percent Growth ([3]; UACC-62, Log10 Concentration −5.0): 14% | Percent Growth ([3]; UACC-62, Log10 Concentration −6.0): 41% | Percent Growth ([3]; UACC-62, Log10 Concentration −7.0): 83% | Percent Growth ([3]; UACC-62, Log10 Concentration −8.0): 94% | CC50 ([3]; UACC-62, read-out: LC50 (the source's name)): > 100 µM | GI50 ([4]; HOP-62): 59.4 µM | TGI ([4]; HOP-62): >1.00E−04 | Percent Growth ([4]; HOP-62, Log10 Concentration −4.0): 40% | Percent Growth ([4]; HOP-62, Log10 Concentration −5.0): 83% | Percent Growth ([4]; HOP-62, Log10 Concentration −6.0): 97% | Percent Growth ([4]; HOP-62, Log10 Concentration −7.0): 105% | Percent Growth ([4]; HOP-62, Log10 Concentration −8.0): 92% | CC50 ([4]; HOP-62, read-out: LC50 (the source's name)): > 100 µM | GI50 [5]: 22.7 µM | TGI [5]: >1.00E−04 | Percent Growth ([5]; Log10 Concentration −4.0): 29% | Percent Growth ([5]; Log10 Concentration −5.0): 62% | Percent Growth ([5]; Log10 Concentration −6.0): 109% | Percent Growth ([5]; Log10 Concentration −7.0): 121% | Percent Growth ([5]; Log10 Concentration −8.0): 108% | CC50 [5, 10]: > 100 µM | TGI ([6]; NCI-H522): 8.45E−05 | Percent Growth ([6]; NCI-H522, Log10 Concentration −4.0): −1% | Percent Growth ([6]; NCI-H522, Log10 Concentration −5.0): 12% | Percent Growth ([6]; NCI-H522, Log10 Concentration −6.0): 58% | Percent Growth ([6]; NCI-H522, Log10 Concentration −7.0): 46% | Percent Growth ([6]; NCI-H522, Log10 Concentration −8.0): 67% | CC50 ([6]; NCI-H522, read-out: LC50 (the source's name)): > 100 µM | GI50 ([7]; NCI-H460): 10.5 µM | TGI ([7]; NCI-H460): >1.00E−04 | Percent Growth ([7]; NCI-H460, Log10 Concentration −4.0): 18% | Percent Growth ([7]; NCI-H460, Log10 Concentration −5.0): 51% | Percent Growth ([7]; NCI-H460, Log10 Concentration −6.0): 90% | Percent Growth ([7]; NCI-H460, Log10 Concentration −7.0): 117% | Percent Growth ([7]; NCI-H460, Log10 Concentration −8.0): 97% | CC50 ([7]; NCI-H460, read-out: LC50 (the source's name)): > 100 µM | GI50 [8]: 4.11 µM | TGI [8]: 9.65E−05 | Percent Growth ([8]; Log10 Concentration −5.0): 25% | Percent Growth ([8]; Log10 Concentration −6.0): 89% | Percent Growth ([8]; Log10 Concentration −7.0): 94% | Percent Growth ([8]; Log10 Concentration −8.0): 102% | CC50 [8, 10]: > 100 µM | GI50 ([9]; HOP-92): > 100 µM | TGI ([9]; HOP-92): >1.00E−04 | Percent Growth ([9]; HOP-92, Log10 Concentration −4.0): 68% | Percent Growth ([9]; HOP-92, Log10 Concentration −5.0): 70% | Percent Growth ([9]; HOP-92, Log10 Concentration −6.0): 94% | Percent Growth ([9]; HOP-92, Log10 Concentration −7.0): 94% | Percent Growth ([9]; HOP-92, Log10 Concentration −8.0): 99% | CC50 ([9]; HOP-92, read-out: LC50 (the source's name)): > 100 µM
